Test results as given in patent publication US7615359B2, “Copolymer 1 related polypeptides for use as molecular weight markers and for therapeutic use” (Yeda Research and Development Co., Ltd., priority 1998, dated 2009).
Values belong to the molecule of their own block, whether it stands above or below them.

Legend:
[1] = test system: experimental allergic encephalomyelitis (EAE) in (SJL/JxBALB/c)FI mice; assay: Blocking of experimental allergic encephalomyelitis (EAE) by injection with complete adjuvant; format: in vivo, mouse; conditions: for Incidence of EAE: antigen included in the encephalitogenic inoculum, animals with EAE/animals; for % Blocking: blocking of EAE vs control inoculum; for Mean Score: disease score 0 (healthy) to 5 (dead); for Mean Onset: animals not protected, onset = day of disease score of at least 1
Excerpt: Blocking of Experimental Allergic Encephalomyelitis—To test the physiological activity of TV-markers, protection from experimental allergic encephalomyelitis (EAE) was investigated in mice. Injection of Copolymer 1 in complete Freund's adjuvant together with the encephalitogen can block EAE essentially as described in Aharoni et al., 17 EUR. J. IMMUNOL. 23 (1993). Other researchers have observed that the therapeutic effect of Copolymer 1 in multiple sclerosis patients is also associated with the induction of TH2 cells. Lahat et al., 244 J. NEUROL. 129 (1997). In this example, EAE is blocked by different polypeptides of the present invention.
Pertussis toxin (0.25 ml, 250 ng, Sigma) is injected intravenously, immediately after and 48 hr later. […] 2156 (1979).
EAE blocking by injection with complete adjuvant—Each antigen being tested was included in the encephalitogenic inoculum. […] Also shown is the mean onset of EAE in animals which were not protected. Disease intensity is scored daily in mice with a score of zero (0=healthy) to five (5=dead).

[2] = test system: anti-Cop-1 (3-3-9) monoclonal antibody; assay: RIA: binding of anti-Cop 1 monoclonal antibody to coated antigen; conditions: relative to Cop 1 reference standard; 2 µg/ml coating antigen
[3] = test system: anti-Cop-1 (3-1-45) monoclonal antibody; assay: as above; conditions: relative to Cop 1 reference standard; 2 µg/ml coating antigen
[4] = test system: anti-Cop-1 (5-7-2) monoclonal antibody; assay: as above; conditions: relative to Cop 1 reference standard; 2 µg/ml coating antigen
[5] = test system: BALB/c-Ts-Cop-1 T cell line; assay: Proliferation of Cop 1 specific T cell line (3H-thymidine uptake); conditions: 10 µg antigen; relative to Cop 1
L-22-1 T cell clone = assay: as above; conditions: 10 µg antigen; relative to Cop 1
[6] = test system: SC-103 human Cop 1 specific T cell clone; assay: as above; conditions: 10 µg antigen; relative to Cop 1

Binding of mAb anti-Cop-1 (3-3-9), % Cop1 binding [2]: 90% | Binding of mAb anti-Cop-1 (3-1-45), % Cop1 binding [3]: 85% | Binding of mAb anti-Cop-1 (5-7-2), % Cop1 binding [4]: 86%
Molecule: glatiramer acetate [compound 55396, reference compound]
Incidence of EAE [1]: 0/10 | % Blocking [1]: 100% | Mean Score [1]: 0 | 3H-Thymidine incorporation, % Cop1, BALB/c-Ts-Cop-1 [5]: 105% | 3H-Thymidine incorporation, % Cop1, L-22-1 (L-22-1 T cell clone): 105% | 3H-Thymidine incorporation, % Cop1, SC-103 [6]: 80%

Molecule: AKKYAKKAKAEKAKKAYKAAEAKKAAKYEKAAAEKAAAKEAAYEA [TV-45]
Incidence of EAE [1]: 0/10 | % Blocking [1]: 100%

Molecule: AKKYAKKEKAYAKKAEKAAKKAEAKAYKAAEAKKKAEAKYKAEAAKAAAKEAAYEA [TV-56]
Binding of mAb anti-Cop-1 (3-3-9), % Cop1 binding [2]: 2% | Binding of mAb anti-Cop-1 (3-1-45), % Cop1 binding [3]: 6% | Binding of mAb anti-Cop-1 (5-7-2), % Cop1 binding [4]: 91% | 3H-Thymidine incorporation, % Cop1, BALB/c-Ts-Cop-1 [5]: 59% | 3H-Thymidine incorporation, % Cop1, L-22-1 (L-22-1 T cell clone): 0% | 3H-Thymidine incorporation, % Cop1, SC-103 [6]: 0%

Binding of mAb anti-Cop-1 (3-3-9), % Cop1 binding [2]: 0% | Binding of mAb anti-Cop-1 (3-1-45), % Cop1 binding [3]: 0% | Binding of mAb anti-Cop-1 (5-7-2), % Cop1 binding [4]: 1%
Molecule: AKKYAKKEKAAKKAYKKEAKAKAAEAAAKEAAYEA [TV-35]
3H-Thymidine incorporation, % Cop1, BALB/c-Ts-Cop-1 [5]: 28% | 3H-Thymidine incorporation, % Cop1, L-22-1 (L-22-1 T cell clone): 0% | 3H-Thymidine incorporation, % Cop1, SC-103 [6]: 0%

Binding of mAb anti-Cop-1 (3-3-9), % Cop1 binding [2]: 91% | Binding of mAb anti-Cop-1 (3-1-45), % Cop1 binding [3]: 83% | Binding of mAb anti-Cop-1 (5-7-2), % Cop1 binding [4]: 82%
Molecule: glatiramer acetate [compound 55296, reference compound]
3H-Thymidine incorporation, % Cop1, BALB/c-Ts-Cop-1 [5]: 110% | 3H-Thymidine incorporation, % Cop1, L-22-1 (L-22-1 T cell clone): 106% | 3H-Thymidine incorporation, % Cop1, SC-103 [6]: 81%

Molecule: glatiramer acetate [compound 03494, reference compound]
Incidence of EAE [1]: 0/10 | % Blocking [1]: 100% | Mean Score [1]: 0

B1: AKKYAKKAEKAYAKKAKAAKEKKAYAKKEAKAYKAAEAKKKAKAEAKKYAKEAAKAKKEAYKAEAKKYAKAAKAEKKEYAAAEAKKAEAAKAYKAEAAKAAAKEAAYEA (peptide)
chain: AKKYAKKAEKAYAKKAKAAKEKKAYAKKEAKAYKAAEAKKKAKAEAKKYAKEAAKAKKEAYKAEAKKYAKAAKAEKKEYAAAEAKKAEAAKAYKAEAAKAAAKEAAYEA
notes: reversed-phase fraction 2 designated TV-109
Incidence of EAE [1]: 0/10 | % Blocking [1]: 100%

B2: AKKYAKKEKAYAKAKKAEAKAAKKAKAEAKKYAKAAKAEKKEYAAAEAKYKAEAAKAAAKEAAYEA (peptide)
chain: AKKYAKKEKAYAKAKKAEAKAAKKAKAEAKKYAKAAKAEKKEYAAAEAKYKAEAAKAAAKEAAYEA
Mean Onset [1]: 11.7 days | Incidence of EAE [1]: 6/10 | % Blocking [1]: 40%

Binding of mAb anti-Cop-1 (3-3-9), % Cop1 binding [2]: 6% | Binding of mAb anti-Cop-1 (3-1-45), % Cop1 binding [3]: 9% | Binding of mAb anti-Cop-1 (5-7-2), % Cop1 binding [4]: 37%
B3: AKKYAKKEKAYAKKAEKAAKKAEAKAYKAAEAKKKAKAEAKKYAKAAKAEKKEYAAAEAKYKAEAAKAAAKEAAYEA (peptide)
chain: AKKYAKKEKAYAKKAEKAAKKAEAKAYKAAEAKKKAKAEAKKYAKAAKAEKKEYAAAEAKYKAEAAKAAAKEAAYEA
Mean Onset [1]: 14.0 days | Incidence of EAE [1]: 1/9 | % Blocking [1]: 89% | 3H-Thymidine incorporation, % Cop1, BALB/c-Ts-Cop-1 [5]: 52% | 3H-Thymidine incorporation, % Cop1, L-22-1 (L-22-1 T cell clone): 1% | 3H-Thymidine incorporation, % Cop1, SC-103 [6]: 0%

Binding of mAb anti-Cop-1 (3-3-9), % Cop1 binding [2]: 2% | Binding of mAb anti-Cop-1 (3-1-45), % Cop1 binding [3]: 6% | Binding of mAb anti-Cop-1 (5-7-2), % Cop1 binding [4]: 76%
B4: AKKYAKKEKAYAKKAEKAAKKAEAKAYKAAEAKKKAKAEAKKYAKAAKAEKKEYAAAEAKYKAEAAKKAYKAEAAKAAAKEAAYEA (peptide)
chain: AKKYAKKEKAYAKKAEKAAKKAEAKAYKAAEAKKKAKAEAKKYAKAAKAEKKEYAAAEAKYKAEAAKKAYKAEAAKAAAKEAAYEA
Mean Onset [1]: 12.0 days | Incidence of EAE [1]: 3/10 | % Blocking [1]: 70% | 3H-Thymidine incorporation, % Cop1, BALB/c-Ts-Cop-1 [5]: 44% | 3H-Thymidine incorporation, % Cop1, L-22-1 (L-22-1 T cell clone): 1% | 3H-Thymidine incorporation, % Cop1, SC-103 [6]: 0%
